Here are results for 3 compounds from patent publication US8399501B2, “Crystalline alkoxyimidazol-1-ylmethyl biphenyl carboxylic acid and methods for preparing thereof” (Theravance, Inc., priority 2010, dated 2013).

The data set is described as follows: Solid state stability assessment (storage at 40° C. with desiccant, impurities by HPLC). Format: physicochemical. Conditions: for % M + 28 (ethyl ester imidazole impurity, HPLC area percentage) / % M − 28 (acid dihydroimidazole impurity, HPLC area percentage) / Δ % M + 28 (increase relative to time zero) / Δ % M − 28 (increase relative to time zero): closed vials, Molecular Sieve 4A dessicant. How it is done:
Samples of the crystalline 4′-{2-ethoxy-4-ethyl-5-[((S)-2-mercapto-4-methylpentanoyl-amino)methyl]imidazol-1-ylmethyl}-3′-fluorobiphenyl-2-carboxylic acid, the micronized crystalline compound, and the slurried micronized crystalline compound, about 15 mg each, were stored in multiple closed vials at 40° C. (with 1 g Molecular Sieve 4A dessicant included). At specific intervals, the entire contents of representative vials were analyzed by the following HPLC method:
Column: Agilent Zorbox SB-C18, 4.6×250 mm, 5 μm (Part No. 880975-902). Mobile Phase A: 80% water, 20% MeCN, 0.01% TFA. Mobile Phase B: 20% water, 80% MeCN, 0.01% TFA. Flow rate: 1 mL/min. Injection Volume: 20 μL. Detector: 225 nm.
Samples were prepared as 0.2-0.3 mg/mL stock solutions in 40% MeOH and 60% MeCN in water, depending on the solubility, for injection onto the HPLC. The amount of 4′-{2-ethoxy-4-ethyl-5-[(2-mercapto-4-methylpentanoylamino)methyl]imidazol-1-ylmethyl}-3′-fluorobiphenyl-2-carboxylic acid ethyl ester (M+28) and 4′-{4-ethyl-5-[(2-mercapto-4-methylpentanoylamino)methyl]-2-oxo-2,3-dihydroimidazol-1-ylmethyl}-3′-fluorobiphenyl-2-carboxylic acid (M−28) present were determined by HPLC area percentage (% AUC or area/area %).

The mark [1] stands for this setting: 2 weeks at 40° C., listed as Ex. 1.
[2] abbreviates: 4 weeks at 40° C., listed as Ex. 1.
The mark [3] stands for this setting: 2 weeks at 40° C., listed as Ex. 2.
The mark [4] stands for this setting: 4 weeks at 40° C., listed as Ex. 2.
[5] abbreviates: 2 weeks at 40° C., listed as Ex. 3.
Setting [6] is: 2 weeks at 40° C., listed as stable micronized acid imidazole.
The mark [7] stands for this setting: 4 weeks at 40° C., listed as Ex. 3.
The mark [8] stands for this setting: 4 weeks at 40° C., listed as stable micronized acid imidazole.

With `CCOc1nc(CC)c(CNC(=O)[C@@H](S)CC(C)C)n1Cc1ccc(-c2ccccc2C(=O)O)cc1F` [Example 1, 4′-{2-Ethoxy-4-ethyl-5-[((S)-2-mercapto-4-methylpentanoylamino)methyl]imidazol-1-ylmethyl}-3′-fluorobiphenyl-2-carboxylic Acid], under setting [1], the “% M + 28 (ethyl ester imidazole impurity, HPLC area percentage)” value is listed as 0.05%; the “% M − 28 (acid dihydroimidazole impurity, HPLC area percentage)” value is reported as 0.04%; the “Δ % M + 28 (increase relative to time zero)” value is 0.05%; the “Δ % M − 28 (increase relative to time zero)” value is reported as −0.01%. In addition, under setting [2], the “% M + 28 (ethyl ester imidazole impurity, HPLC area percentage)” value worked out at 0.05%; the “% M − 28 (acid dihydroimidazole impurity, HPLC area percentage)” value worked out at 0.05%; the “Δ % M + 28 (increase relative to time zero)” value was determined as 0.05%; the “Δ % M − 28 (increase relative to time zero)” value is recorded as 0%. Also, under “T = 0, 40° C., listed as Ex. 1”, the “% M + 28 (ethyl ester imidazole impurity, HPLC area percentage)” value worked out at 0% and the “% M − 28 (acid dihydroimidazole impurity, HPLC area percentage)” value turned out to be 0.05%.
For `CCOc1nc(CC)c(CNC(=O)[C@@H](S)CC(C)C)n1Cc1ccc(-c2ccccc2C(=O)O)cc1F` [Example 2, 4′-{2-ethoxy-4-ethyl-5-[((S)-2-mercapto-4-methylpentanoylamino)-methyl]imidazol-1-ylmethyl}-3′-fluorobiphenyl-2-carboxylic acid], for the setting “2 weeks at 40° C.”, the “Δ % M + 28 (increase relative to time zero)” value is recorded as “about 0.30%” and the “Δ % M − 28 (increase relative to time zero)” value is given as “about 0.38%”. Under setting [3], the “% M + 28 (ethyl ester imidazole impurity, HPLC area percentage)” value was determined as 0.40%; the “% M − 28 (acid dihydroimidazole impurity, HPLC area percentage)” value was determined as 0.47%; the “Δ % M + 28 (increase relative to time zero)” value is 0.30%; the “Δ % M − 28 (increase relative to time zero)” value is given as 0.38%. Besides, under setting [4], the “% M + 28 (ethyl ester imidazole impurity, HPLC area percentage)” value turned out to be 0.44%; the “% M − 28 (acid dihydroimidazole impurity, HPLC area percentage)” value is 0.61%; the “Δ % M + 28 (increase relative to time zero)” value is 0.34%; the “Δ % M − 28 (increase relative to time zero)” value stood at 0.52%. Further, where the note is “T = 0, 40° C., listed as Ex. 2”, the “% M + 28 (ethyl ester imidazole impurity, HPLC area percentage)” value turned out to be 0.10% and the “% M − 28 (acid dihydroimidazole impurity, HPLC area percentage)” value is 0.09%.
`CCOc1nc(CC)c(CNC(=O)[C@@H](S)CC(C)C)n1Cc1ccc(-c2ccccc2C(=O)O)cc1F` [Example 3, 4′-{2-ethoxy-4-ethyl-5-[((S)-2-mercapto-4-methylpentanoylamino)methyl]imidazol-1-ylmethyl}-3′-fluorobiphenyl-2-carboxylic acid]: the “Δ % M + 28 (increase relative to time zero)” value (2 weeks at 40° C.) was “about 0.01%”; the “Δ % M + 28 (increase relative to time zero)” value under setting [5] turned out to be 0.01%; the “Δ % M + 28 (increase relative to time zero)” value under setting [6] was at most 0.1%; the “Δ % M + 28 (increase relative to time zero)” value (4 weeks at 40° C.) is recorded as “about 0.02%”; the “Δ % M + 28 (increase relative to time zero)” value under setting [7] is given as 0.02%; the “Δ % M + 28 (increase relative to time zero)” value under setting [8] is at most 0.1%. Moreover, the “Δ % M − 28 (increase relative to time zero)” value runs as follows: (2 weeks at 40° C.) “about 0.05%”; under setting [5], 0.05%; under setting [6], at most 0.1%; (4 weeks at 40° C.) “about 0.09%”; under setting [7], 0.09%; under setting [8], at most 0.1%. Also, the “% M + 28 (ethyl ester imidazole impurity, HPLC area percentage)” value under setting [5] was found to be 0.07%; the “% M + 28 (ethyl ester imidazole impurity, HPLC area percentage)” value under setting [7] came out at 0.08%; the “% M + 28 (ethyl ester imidazole impurity, HPLC area percentage)” value (T = 0, 40° C., listed as Ex. 3) is recorded as 0.06%. For the same compound, the “% M − 28 (acid dihydroimidazole impurity, HPLC area percentage)” value by setting is: under setting [5], 0.20%; under setting [7], 0.24%; (T = 0, 40° C., listed as Ex. 3) 0.15%. For the same compound, the “chemical degradation by HPLC after storage” value (about 40° C. for at least 2 weeks, with a desiccant such as molecular sieves) is “minimal chemical degradation”.
